Reference: US10208033B2, “β-carboline, dihydro-β-carboline and tetrahydro-β-carboline alkaloid derivatives and preparation methods same and use in aspects of preventing and treating plant viruses, fungicides and insecticides” (NANKAI UNIVERSITY, priority 2013, dated 2019)
Where two headings read alike, the source gives them in different places.

What was measured:
[1] = system: tobacco mosaic virus (TMV); experiment: Anti-TMV in vitro effect (half-leaf soaking); format: cell-based, tobacco mosaic virus (host Nicotiana tabacum L.cv.Xanthi NN); settings: for inhibition at 100 µg/mL / inhibition at 500 µg/mL: Tobacco mosaic virus, read-out: Relative inhibition rate (%) In vitro activity
[2] = system: tobacco mosaic virus (TMV); experiment: Anti-TMV in vivo inactivation; parameters: species or system tobacco mosaic virus (host Nicotiana tabacum L.cv.Xanthi NN); settings: for inhibition at 100 µg/mL / inhibition at 500 µg/mL: Tobacco mosaic virus, read-out: Relative inhibition rate (%) In vivo inactivation
[3] = system: tobacco mosaic virus (TMV); experiment: Anti-TMV in vivo therapeutic effect; parameters: species or system tobacco mosaic virus (host Nicotiana tabacum L.cv.Xanthi NN); settings: for inhibition at 100 µg/mL / inhibition at 500 µg/mL: Tobacco mosaic virus, read-out: Relative inhibition rate (%) In vivo therapy
[4] = system: tobacco mosaic virus (TMV); experiment: Anti-TMV in vivo protective effect; parameters: species or system tobacco mosaic virus (host Nicotiana tabacum L.cv.Xanthi NN); settings: for inhibition at 100 µg/mL / inhibition at 500 µg/mL: Tobacco mosaic virus, read-out: Relative inhibition rate (%) In vivo protection
cucumber fusarium wilt = experiment: Fungicidal (bactericidal) activity in vitro, PDA colony diameter; format: cell-based; settings: 50 mg/kg; for inhibition of growth at 50 mg/kg: Fusarium, 96 h
Cercospora arachidicola = experiment: as above; format: cell-based; settings: 50 mg/kg; for inhibition of growth at 50 mg/kg: Mycosphaerella arachidis, 96 h
Macrophoma kawatsukai = experiment: as above; format: cell-based; settings: 50 mg/kg
Alternaria solani = experiment: as above; format: cell-based; settings: 50 mg/kg; for inhibition of growth at 50 mg/kg: Alternaria solani, 96 h
Fusarium graminearumt = experiment: microbe, parasite or virus in culture; format: cell-based; settings: for Bactericidal activity (%) Fusarium graminearumt: 50 mg/kg; for inhibition of growth at 50 mg/kg: Fusarium, 96 h, read-out: Bactericidal activity (%) Fusarium graminearumt
potato late blight = experiment: microbe, parasite or virus in culture; format: cell-based; settings: for inhibition of growth at 50 mg/kg: Phytophthora infestans, 96 h, read-out: Bactericidal activity (%) potato late blight
Sclerotinia scleotiorum = experiment: Fungicidal (bactericidal) activity in vitro, PDA colony diameter; format: cell-based; settings: 50 mg/kg; for inhibition of growth at 50 mg/kg: Sclerotinia, 96 h
Botrytis cinerea = experiment: as above; format: cell-based; settings: 50 mg/kg; for inhibition of growth at 50 mg/kg: Botrytis cinerea, 96 h
Rhizoctonia solani = experiment: as above; format: cell-based; settings: 50 mg/kg; for inhibition of growth at 50 mg/kg: Rhizoctonia solani, 96 h
Phytophthora capsici = experiment: as above; format: cell-based; settings: 50 mg/kg; for inhibition of growth at 50 mg/kg: Phytophthora capsici, 96 h
Fusarium fujikuroi = experiment: as above; format: cell-based; settings: 50 mg/kg; for inhibition of growth at 50 mg/kg: Fusarium fujikuroi, 96 h
Rhizoctonia cereali = experiment: as above; format: cell-based; settings: 50 mg/kg; for inhibition of growth at 50 mg/kg: Rhizoctonia, 96 h
Bipolaria maydis = experiment: organism not typed; format: cell-based; settings: for Bactericidal activity (%) Bipolaria maydis: 50 mg/kg; for inhibition at 50 mg/kg: read-out: Bactericidal activity (%) Bipolaria maydis
[5] = system: Colletotrichum orbiculare; experiment: Fungicidal (bactericidal) activity in vitro, PDA colony diameter; format: cell-based; settings: 50 mg/kg; for inhibition of growth at 50 mg/kg: Colletotrichum orbiculare, 96 h
armyworms = format: in vivo; settings: concentration 600 mg/kg
cotton bollworms = experiment: whole plant or invertebrate; settings: for Cotton bollworm Mortality (%): concentration 600 mg/kg; for mortality at 600 mg/kg: Helicoverpa armigera, in Gossypium hirsutum, read-out: Cotton bollworm Mortality (%)
Method: Experimental method of cotton bollworms: feed and drug mixing method: measure 3 mL of prepared solution and add it to about 27 g of newly prepared feed, thereby obtaining needed concentration through dilution by 10 times.

mosquito larvae = experiment: whole plant or invertebrate; settings: for Mosquito larvae Mortality (%) / mortality at 10 mg/kg: 24 h; for mortality at 10 mg/kg: Culex pipiens, read-out: Mosquito larvae Mortality (%)
Procedure, shortened: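 Early fourth-instar Culex pipiens pallens larvae from an indoor colony, 10 per beaker, exposed to test compound at 5 ppm in water, diluted from a 1000 ppm acetone mother solution. Blank: water containing 0.5 mL test solvent.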

[6] = system: armyworms, cotton bollworms and corn borers; experiment: Insecticidal activity, overall statements on Table 3; format: in vivo; settings: Table 3, 600 mg/kg
corn borers [7] = settings: concentration 600 mg/kg
[8] = system: tobacco mosaic virus (TMV); experiment: Anti-TMV activity, overall statements on Table 1; format: in vivo, tobacco mosaic virus (host Nicotiana tabacum L.cv.Xanthi NN); settings: 100 μg/mL versus ningnanmycin at 100 μg/mL
corn borers [9] = experiment: whole plant or invertebrate; settings: read-out: Corn borer Mortality (%)

## Cc1nccc2c1[nH]c1cc(OC(=O)C(C)(C)C)ccc12 [Ia-8, Tert-valerate (1-methylpyridino [3,4-b]indol-7)-ester]
[1]; treatment dose 100 μg/mL
  Relative inhibition rate (%) In vitro activity: 0%
[1]; treatment dose 500 μg/mL
  Relative inhibition rate (%) In vitro activity: 0%
[2]; treatment dose 100 μg/mL
  Relative inhibition rate (%) In vivo inactivation: 0%
[2]; treatment dose 500 μg/mL
  Relative inhibition rate (%) In vivo inactivation: 15.3%
[3]; treatment dose 100 μg/mL
  Relative inhibition rate (%) In vivo therapy: 0%
[3]; treatment dose 500 μg/mL
  Relative inhibition rate (%) In vivo therapy: 0%
[4]; treatment dose 100 μg/mL
  Relative inhibition rate (%) In vivo protection: 0%
[4]; treatment dose 500 μg/mL
  Relative inhibition rate (%) In vivo protection: 14.4%
Cucumber fusarium wilt
  Bactericidal activity (%) Cucumber fusarium wilt: 52.4%
Cercospora arachidicola
  Bactericidal activity (%) Cercospora arachidicola: 71.4%
Macrophoma kawatsukai
  Bactericidal activity (%) Macrophoma kawatsukai: 76.5%
Alternaria solani
  Bactericidal activity (%) Alternaria solani: 66.7%
Fusarium graminearumt
  Bactericidal activity (%) Fusarium graminearumt: 78.6%
Potato late blight; 50 mg/kg
  Bactericidal activity (%) potato late blight: 50.0%
Sclerotinia scleotiorum
  Bactericidal activity (%) Sclerotinia scleotiorum: 80.0%
Botrytis cinerea
  Bactericidal activity (%) Botrytis cinerea: 54.6%
Rhizoctonia solani
  Bactericidal activity (%) Rhizoctonia solani: 42.9%
Phytophthora capsici
  Bactericidal activity (%) Phytophthora capsici: 93.9%
Fusarium fujikuroi
  Bactericidal activity (%) Fusarium fujikuroi: 50.0%
Rhizoctonia cereali
  Bactericidal activity (%) Rhizoctonia cereali: 90.6%
Bipolaria maydis
  Bactericidal activity (%) Bipolaria maydis: 79.0%
[5]
  Bactericidal activity (%) Colletotrichum orbiculare: 71.4%
armyworms
  Armyworm Mortality (%): 70%
Cotton bollworms
  Cotton bollworm Mortality (%): 15%
Mosquito larvae; at 5 mg/kg
  activity against culex pipiens larvae (in words): still show high activity
Mosquito larvae; concentration 5 mg/kg
  Mosquito larvae Mortality (%): 60%
Mosquito larvae; concentration 10 mg/kg
  Mosquito larvae Mortality (%): 100%
[6]
  activity against armyworms, cotton bollworms and corn borers (in words): broad-spectrum activity
Corn borers [7]
  Corn borer Mortality (%): 65%

## C[C@@H]1N[C@H](C(=O)NN)Cc2c1[nH]c1ccccc21 [Ib-15, (1S, 3S)-1-methyl-2,3,4,9-tetrahydropyridino [3,4-b] indol-3-formylhydrazine]
[1]; treatment dose 100 μg/mL
  inhibition at 100 µg/mL: 21.4%
[1]; treatment dose 500 μg/mL
  inhibition at 500 µg/mL: 50%
[2]; treatment dose 100 μg/mL
  inhibition at 100 µg/mL: 16.5%
[2]; treatment dose 500 μg/mL
  inhibition at 500 µg/mL: 46%
[3]; treatment dose 100 μg/mL
  inhibition at 100 µg/mL: 20.3%
[3]; treatment dose 500 μg/mL
  inhibition at 500 µg/mL: 48.2%
[4]; treatment dose 100 μg/mL
  inhibition at 100 µg/mL: 23.4%
[4]; treatment dose 500 μg/mL
  inhibition at 500 µg/mL: 49.6%
Cucumber fusarium wilt
  inhibition of growth at 50 mg/kg: 13.6%
Cercospora arachidicola
  inhibition of growth at 50 mg/kg: 18.2%
Macrophoma kawatsukai
  inhibition at 50 mg/kg: 39.4%
Alternaria solani
  inhibition of growth at 50 mg/kg: 9.5%
Fusarium graminearumt
  inhibition of growth at 50 mg/kg: 38.5%
Potato late blight
  inhibition of growth at 50 mg/kg: 26.1%
Sclerotinia scleotiorum
  inhibition of growth at 50 mg/kg: 30.8%
Botrytis cinerea
  inhibition of growth at 50 mg/kg: 27.8%
Rhizoctonia solani
  inhibition of growth at 50 mg/kg: 4.2%
Phytophthora capsici
  inhibition of growth at 50 mg/kg: 51.5%
Fusarium fujikuroi
  inhibition of growth at 50 mg/kg: 29.4%
Rhizoctonia cereali
  inhibition of growth at 50 mg/kg: 54.1%
Bipolaria maydis
  inhibition at 50 mg/kg: 24%
[5]
  inhibition of growth at 50 mg/kg: 24%
armyworms
  Armyworm Mortality (%): 20%
Cotton bollworms
  mortality at 600 mg/kg: 20%
Mosquito larvae
  mortality at 10 mg/kg: 40%
[8]
  anti-TMV activity compared with ningnanmycin: equivalent to the activity of commercial variety ningnanmycin
Corn borers [9]
  mortality at 600 mg/kg: 30%

## C[C@@H]1N[C@H](C(=O)NCC2CCCO2)Cc2c1[nH]c1ccccc21 (stereo partly drawn) [Ib-20, (1S, 3S)—N-((tetrahydrofuran-2)-methyl)-1-methyl-2,3,4,9-tetrahydro-pyridino [3,4-b] indol-3-formamide]
[1]; treatment dose 100 μg/mL
  Relative inhibition rate (%) In vitro activity: 0%
[1]; treatment dose 500 μg/mL
  Relative inhibition rate (%) In vitro activity: 37.5%
[2]; treatment dose 100 μg/mL
  Relative inhibition rate (%) In vivo inactivation: 9.8%
[2]; treatment dose 500 μg/mL
  Relative inhibition rate (%) In vivo inactivation: 39.1%
[3]; treatment dose 100 μg/mL
  Relative inhibition rate (%) In vivo therapy: 0%
[3]; treatment dose 500 μg/mL
  Relative inhibition rate (%) In vivo therapy: 34.2%
[4]; treatment dose 100 μg/mL
  Relative inhibition rate (%) In vivo protection: 0%
[4]; treatment dose 500 μg/mL
  Relative inhibition rate (%) In vivo protection: 29.6%
Cucumber fusarium wilt
  Bactericidal activity (%) Cucumber fusarium wilt: 15.4%
Cercospora arachidicola
  Bactericidal activity (%) Cercospora arachidicola: 23.5%
Macrophoma kawatsukai
  Bactericidal activity (%) Macrophoma kawatsukai: 27.8%
Alternaria solani
  Bactericidal activity (%) Alternaria solani: 20.0%
Fusarium graminearumt
  Bactericidal activity (%) Fusarium graminearumt: 24.1%
Potato late blight
  Bactericidal activity (%) potato late blight: 20.0%
Sclerotinia scleotiorum
  Bactericidal activity (%) Sclerotinia scleotiorum: 0.0%
Botrytis cinerea
  Bactericidal activity (%) Botrytis cinerea: 36.4%
Rhizoctonia solani
  Bactericidal activity (%) Rhizoctonia solani: 13.2%
Phytophthora capsici
  Bactericidal activity (%) Phytophthora capsici: 18.4%
Fusarium fujikuroi
  Bactericidal activity (%) Fusarium fujikuroi: 21.4%
Rhizoctonia cereali
  Bactericidal activity (%) Rhizoctonia cereali: 47.1%
Bipolaria maydis
  Bactericidal activity (%) Bipolaria maydis: 16.0%
[5]
  Bactericidal activity (%) Colletotrichum orbiculare: 18.5%
armyworms
  Armyworm Mortality (%): 65%
Cotton bollworms
  Cotton bollworm Mortality (%): 30%
Mosquito larvae; concentration 5 mg/kg
  Mosquito larvae Mortality (%): 40%
Mosquito larvae; concentration 10 mg/kg
  Mosquito larvae Mortality (%): 100%
[6]
  activity against armyworms, cotton bollworms and corn borers (in words): broad-spectrum activity
Corn borers [7]
  Corn borer Mortality (%): 60%

## C[C@@H]1N[C@H](C(=O)NNC(=O)c2cccc3nnsc23)Cc2c1[nH]c1ccccc21 [Id-1, N′-((1S, 3S)-1-methyl-2,3,4,9-tetrahydropyridino [3,4-b]indol-3-tricarboxylate)benzo [d] [1,2, 3] thiadiazole-7-formylhydrazine]
[1]; treatment dose 100 μg/mL
  inhibition at 100 µg/mL: 22.6%
[1]; treatment dose 500 μg/mL
  inhibition at 500 µg/mL: 52.1%
[2]; treatment dose 100 μg/mL
  inhibition at 100 µg/mL: 16.2%
[2]; treatment dose 500 μg/mL
  inhibition at 500 µg/mL: 44.1%
[3]; treatment dose 100 μg/mL
  inhibition at 100 µg/mL: 26.8%
[3]; treatment dose 500 μg/mL
  inhibition at 500 µg/mL: 54.5%
[4]; treatment dose 100 μg/mL
  inhibition at 100 µg/mL: 29.9%
[4]; treatment dose 500 μg/mL
  inhibition at 500 µg/mL: 58.3%
Cucumber fusarium wilt
  inhibition of growth at 50 mg/kg: 13.6%
Cercospora arachidicola
  inhibition of growth at 50 mg/kg: 18.2%
Macrophoma kawatsukai
  inhibition at 50 mg/kg: 51.5%
Alternaria solani
  inhibition of growth at 50 mg/kg: 19%
Fusarium graminearumt
  inhibition of growth at 50 mg/kg: 61.5%
Potato late blight
  inhibition of growth at 50 mg/kg: 17.4%
Sclerotinia scleotiorum
  inhibition of growth at 50 mg/kg: 26.9%
Botrytis cinerea
  inhibition of growth at 50 mg/kg: 44.4%
Rhizoctonia solani
  inhibition of growth at 50 mg/kg: 1.4%
Phytophthora capsici
  inhibition of growth at 50 mg/kg: 27.3%
Fusarium fujikuroi
  inhibition of growth at 50 mg/kg: 47.1%
Rhizoctonia cereali
  inhibition of growth at 50 mg/kg: 43.2%
Bipolaria maydis
  inhibition at 50 mg/kg: 36%
[5]
  inhibition of growth at 50 mg/kg: 32%
armyworms
  Armyworm Mortality (%): 35%
Cotton bollworms
  mortality at 600 mg/kg: 15%
Mosquito larvae
  mortality at 10 mg/kg: 75%
[8]
  anti-TMV activity compared with ningnanmycin: equivalent to the activity of commercial variety ningnanmycin
Corn borers [9]
  mortality at 600 mg/kg: 35%
